From patent publication US20120020940A1, “ANTIMICROBIAL PEPTIDES” (Helmholtz Zentrum München Deutsches Forschungszentrum Für …, priority 2008, published 2012)
Where two headings read alike, the source gives them in different places. No end group written: not given here.

Assays:
Pseudomonas corrugata [1] = assay: MIC and lethal concentration (Example 3); type: cell-based; details: Table 2; for MIC (>90% inhibition): 1-2 days at 25° C.; for LC, lethal concentration (100% inhibition): at least 4 days of incubation
Protocol: (§1) In-vitro inhibition assays were performed in sterile flat-bottom 96-well plates (Greiner bio-one, Frickenhausen). Antimicrobial peptides were dissolved in 0.01% acetic acid containing 0.2% BSA (500 μg/ml), filter sterilized and stored at −20° C. For inhibition assays dilutions of peptides ranging from 5 to 200 μg/ml were prepared and 10 μl (antibacterial assay) or 20 μl (antifungal assay) of each concentration was loaded per well.
(§2) Bacteria colonies from overnight agar plate cultures were resuspended into 5 ml LB-medium or HPG-medium (OD600 nm=0.08-0.1) and diluted into LB-medium/HPG-medium (1:100). 90 μl of this suspension containing about 10^5-10^6 CFU/ml of tested bacteria were added to each well resulting in final peptide concentrations of 0, 0.5, 1, 2, 5, 10, and 20 μg/ml. […] The lowest concentration, in which there is no observable growth (>90% inhibition) is referred to as minimal inhibitory concentration (MIC). […] For each peptide concentration two identical inhibition assays were performed.

[2] = test system: Pseudomonas syringae pv. syringae; assay: MIC and lethal concentration (Example 3); type: cell-based; details: Table 2; for MIC (>90% inhibition): 1-2 days at 25° C.; for LC, lethal concentration (100% inhibition): at least 4 days of incubation
Protocol: as §1, §2

[3] = test system: Pseudomonas syringae pv. tomato; assay: MIC and lethal concentration (Example 3); type: cell-based; details: Table 2; for MIC (>90% inhibition): 1-2 days at 25° C.; for LC, lethal concentration (100% inhibition): at least 4 days of incubation
Protocol: as §1, §2

Xanthomonas vesicatoria [4] = assay: MIC and lethal concentration (Example 3); type: cell-based; details: Table 2; for MIC (>90% inhibition): 1-2 days at 25° C.; for LC, lethal concentration (100% inhibition): at least 4 days of incubation
Protocol: as §1, §2

[5] = test system: Pectobacterium carotovorum; assay: MIC and lethal concentration (Example 3); type: cell-based; details: Table 2; for MIC (>90% inhibition): 1-2 days at 25° C.; for LC, lethal concentration (100% inhibition): at least 4 days of incubation
Protocol: as §1, §2

[6] = test system: Clavibacter michiganensis; assay: MIC and lethal concentration (Example 3); type: cell-based; details: Table 2; for MIC (>90% inhibition): 1-2 days at 25° C.; for LC, lethal concentration (100% inhibition): at least 4 days of incubation
Protocol: as §1, §2

Staphylococcus aureus = type: cell-based
Protocol: (§3) In-vitro inhibition assays were performed in sterile ELISA-plates (Greiner bio-one, Frickenhausen or Nunc, Wiesbaden). Antimicrobial peptides were dissolved in 0.01% acetic acid containing 0.2% BSA and stored at −20° C. […] After incubation for one day at 27° C. growth inhibition of the bacteria was analyzed by a ELISA microplate reader.

Pseudomonas aeruginosa = type: cell-based
Protocol: as §3

Escherichia coli (DH5α) = type: cell-based
Protocol: as §3

Yersinia enterocolitica = type: cell-based
Protocol: as §3

[7] = test system: Staphylococcus epidermidis; type: cell-based
Protocol: as §3

[8] = test system: human immundeficiency virus (HIV); type: cell-based; details: HeLa cells LC5-RIC pre-incubated 30 min with peptide, read after 72 h; read-out: IC50, concentration where the infection is decreased by 50% (compared to non-treated controls)
Protocol: To measure the activity of the designed oligopeptides against human immundeficiency virus (HIV) a fluorescence-based reporter system was used. HeLa cells (LC5-RIC) harbour a reporter gene, which regulates in dependency of HIV Rev and Tat proteins the synthesis of a red fluorescing protein. In this way the infection of the HeLa cells (LC5-RIC) is indicated and the infection rate can be quantified using a fluorescence microplate reader.
(§4) Antimicrobial oligopeptides were dissolved in 0.01% acetic acid containing 0.2% BSA (500 μg/ml), filter sterilized and stored at −20° C. […] (in 5% CO2). Afterwards, virus particles were added to the pre-treated HeLa cells and the infection was quantified by measuring red fluorescence with a fluorescence microplate reader after 72 h incubation. The viability of the HeLa cells was determined by measuring the activity of the mitochondrial dehydrogenase according to Lindl and Bauer (1994) and Mosmann (1983).

HeLa cells = assay: Cell viability, mitochondrial dehydrogenase activity; type: cell-based; details: at the IC50 concentration (6.8 μM)
Protocol: as §4

[9] = test system: Pseudomonas syringae pv. tomato
Pseudomonas corrugata [10] = test system: Pseudomonas corrugata
Klebsiella pneumoniae = type: cell-based
Protocol: as §3

Enterobacter cloacae = type: cell-based
Protocol: as §3

Klebsiiella oxytoca = type: cell-based
Protocol: as §3

[11] = test system: Clavibacter michiganensis sub. michiganensis; details: overnight 25° C., Table 1
[12] = test system: Pectobacterium carotovorum sub. carotovorum
Botrytis cinerea = assay: MIC, antifungal in-vitro inhibition assay (Example 2); type: cell-based; details: Table 1
Protocol: as §1
(§5) Spores of fungi were collected by water washes of sporulating cultures grown on 2% malt extract agar and spore concentration was determined by microscopy. The concentration of the spores was adjusted to 1.5-2×10^3 spores/ml in 2% malt extract medium and 80 μl of fungal spores were added per well. The final peptide concentrations used in the fungal inhibition assays were […]. After overnight incubation at room temperature the plate were put on a rotary shaker (300 rpm) for further two days to ensure consistantly growth. Antifungal effects of the peptides were determined by a microplate reader (Alternaria, Fusarium) at OD590 nm or by visual screening of the plates (Botrytis, Cladosporium).
(§6) The lowest peptide concentration leading to complete inhibition of bacterial growth or spore germination/mycelial growth (minimal inhibition concentration, MIC) was determined for each organism-peptide combination. For each peptide concentration two identical inhibition assays were performed.

Alternaria alternata = assay: as above; type: cell-based; details: Table 1
Protocol: as §1, §5, §6

Cladosporium herbarum = assay: as above; type: cell-based; details: Table 1
Protocol: as §1, §5, §6

Xanthomonas vesicatoria [13] = test system: Xanthomonas vesicatoria
[14] = test system: Pseudomonas syringae pv. syringae
human erythrocytes = assay: Hemolytic activity, hemoglobin release; type: cell-based; details: 45 min at 37° C., Table 3
Protocol: The hemolytic activity of the peptides was evaluated by determining hemoglobin release of suspensions of fresh human erythrocytes at 405 nm. Human red blood cells were centrifuged and washed three times with Tris-buffer (10 mM Tris, 150 mM NaCl, pH 7.4). Eighty μl of human red blood cells (1.5×10^9/ml) were added to 20 μl of the peptides solution (peptides dissolved in 0.2% BSA, 0.01% HAc) in 96-well plates (Greiner bio-one, Frickenhausen) and incubated for 45 min at 37° C. The endconcentration of the peptides were 0, 20, 50, 100 and 200 μg/ml. After centrifugation (1500×g, 5 min, 20° C.) 30 μl aliquots of the supernatant were transferred to 96-well plates containing 100 μl water. Hemolysis was measured by absorbance at 405 nm with a microplate reader. 100% hemolysis were determined in 2% SDS. The hemolysis percentage was calculated using the following equation: % hemolysis=[(Abs405 nm in the peptide solution−Abs405 nm in peptides solvent)/(Abs405 nm in 2% SDS−Abs405 nm in peptide solvent)]×100.
Further hemolytic activities of the various peptides of the present invention may be taken from the table depicted in example 3, last row indicated as “Hemolytic activity”. In connection therewith, however, the concentrations are stated where at least 50% hemolysis was observed.

| Substance | MIC (>90% inhibition) (Pseudomonas corrugata [1]) | LC, lethal concentration (100% inhibition) (Pseudomonas corrugata [1]) | MIC (>90% inhibition) [2] | LC, lethal concentration (100% inhibition) [2] | MIC (>90% inhibition) [3] | LC, lethal concentration (100% inhibition) [3] | MIC (>90% inhibition) (Xanthomonas vesicatoria [4]) | LC, lethal concentration (100% inhibition) (Xanthomonas vesicatoria [4]) | MIC (>90% inhibition) [5] | LC, lethal concentration (100% inhibition) [5] | MIC (>90% inhibition) [6] | LC, lethal concentration (100% inhibition) [6] | MIC (>90% inhibition) (Staphylococcus aureus) | MIC (>90% inhibition) (Pseudomonas aeruginosa) | MIC (>90% inhibition) (Escherichia coli (DH5α); DH5α) | MIC (>90% inhibition) (Yersinia enterocolitica) | MIC (>90% inhibition) [7] | Minimal inhibition concentration (MIC) for complete inhibition of bacterial growth [11] | Minimal inhibition concentration (MIC) for complete inhibition of spore germination/mycelial growth (Botrytis cinerea) | Minimal inhibition concentration (MIC) for complete inhibition of spore germination/mycelial growth (Alternaria alternata) | also measured |
| --- | --- | --- | --- | --- | --- | --- | --- | --- | --- | --- | --- | --- | --- | --- | --- | --- | --- | --- | --- | --- | --- |
| LRKLKKILKKLF-NH2 [SP10-10] | 0.25/0.25 μg/ml | 0.25/0.25 μg/ml | 0.25 µg/mL | 0.5 µg/mL | 0.5 µg/mL | 1.0 µg/mL | 0.1 µg/mL | 0.5 µg/mL | 2.5 µg/mL | 5.0 µg/mL | 0.25 µg/mL | 0.5 µg/mL | – | – | – | – | – | – | – | – | MIC (>90% inhibition) (Staphylococcus aureus; Staphylococcus aureus, one day at 27° C., Table 4): 10 µg/mL; MIC (>90% inhibition) (Pseudomonas aeruginosa; Pseudomonas aeruginosa, one day at 27° C., Table 4): 2 µg/mL; MIC (>90% inhibition) (Escherichia coli (DH5α); Escherichia coli (DH5α), one day at 27° C., Table 4): 1 µg/mL; MIC (>90% inhibition) (Yersinia enterocolitica; Yersinia enterocolitica, one day at 27° C., Table 4): >50 µg/mL; MIC (>90% inhibition) ([7]; Staphylococcus epidermidis, one day at 27° C., Table 4): 1 µg/mL |
| LRKAKKIAKKLF-NH2 [SP10-11] | 0.5/0.5 μg/ml | 0.5/0.5 μg/ml | 0.1 µg/mL | 0.25 µg/mL | 0.5/0.5 μg/ml | 0.5/0.5 μg/ml | 0.5 µg/mL | 1.0 µg/mL | >10/>10 μg/ml | >10/>10 μg/ml | 5.0/5.0 μg/ml | 5.0/5.0 μg/ml | – | – | – | – | – | – | – | – | IC50 [8]: 6.8 µM; negative/toxic effect on test cells (HeLa cells) (HeLa cells): No negative/toxic effect |
| LRFLKKILKHLF-NH2 [SP10, LRFLKKILKHLF -NH2] | 0.5 µg/mL | 1.0 µg/mL | 0.5 µg/mL | 1.0 µg/mL | 2.5/2.5 μg/ml | 2.5/2.5 μg/ml | 0.5/0.5 μg/ml | 0.5/0.5 μg/ml | 1.0 µg/mL | 2.5 µg/mL | 0.5/0.5 μg/ml | 0.5/0.5 μg/ml | 5 µg/mL | 10 µg/mL | 10 µg/mL | 10 µg/mL | 2 µg/mL | 10 µg/mL | >100 µg/mL | >100 µg/mL | Minimal inhibition concentration (MIC) for complete inhibition of bacterial growth [9]: 10 µg/mL; Minimal inhibition concentration (MIC) for complete inhibition of bacterial growth (Pseudomonas corrugata [10]): 20 µg/mL; MIC (>90% inhibition) (Klebsiella pneumoniae): 20 µg/mL; MIC (>90% inhibition) (Enterobacter cloacae): 20 µg/mL; MIC (>90% inhibition) (Klebsiiella oxytoca): 20 µg/mL; Minimal inhibition concentration (MIC) for complete inhibition of bacterial growth [12]: 20 µg/mL; Minimal inhibition concentration (MIC) for complete inhibition of spore germination/mycelial growth (Cladosporium herbarum): 10 µg/mL; Minimal inhibition concentration (MIC) for complete inhibition of bacterial growth (Xanthomonas vesicatoria [13]): 5 µg/mL; Minimal inhibition concentration (MIC) for complete inhibition of bacterial growth [14]: 10 µg/mL |
| LLKALKKLLKKLL-NH2 [SP9] | – | – | – | – | – | – | – | – | – | – | – | – | – | – | – | – | – | 10 µg/mL | >100 µg/mL | >100 µg/mL | Minimal inhibition concentration (MIC) for complete inhibition of bacterial growth ([9]; Pseudomonas syringae pv. tomato, overnight 25° C., Table 1): 10 µg/mL; Hemolytic activity, concentration where at least 25% hemolysis was observed (human erythrocytes): 50 µg/mL; Minimal inhibition concentration (MIC) for complete inhibition of bacterial growth (Pseudomonas corrugata [10]; Pseudomonas corrugata, overnight 25° C., Table 1): >40 µg/mL; Minimal inhibition concentration (MIC) for complete inhibition of bacterial growth ([12]; Pectobacterium carotovorum sub. carotovorum, overnight 25° C., Table 1): >40 µg/mL; Minimal inhibition concentration (MIC) for complete inhibition of spore germination/mycelial growth (Cladosporium herbarum): 40 µg/mL; Minimal inhibition concentration (MIC) for complete inhibition of bacterial growth (Xanthomonas vesicatoria [13]; Xanthomonas vesicatoria, overnight 25° C., Table 1): 5 µg/mL; Minimal inhibition concentration (MIC) for complete inhibition of bacterial growth ([14]; Pseudomonas syringae pv. syringae, overnight 25° C., Table 1): 10 µg/mL |
| LRFLKKALKKLF-NH2 [SP10-2] | 0.5/0.5 μg/ml | 0.5/0.5 μg/ml | 0.1 µg/mL | 0.25 µg/mL | 0.5/0.5 μg/ml | 0.5/0.5 μg/ml | 0.25/0.25 μg/ml | 0.25/0.25 μg/ml | 1.0 µg/mL | 2.5 µg/mL | 0.25/0.25 μg/ml | 0.25/0.25 μg/ml | 1 µg/mL | 1 µg/mL | 1 µg/mL | 10 µg/mL | 1 µg/mL | – | – | – | – |
